In patent publication US20170246137A1, “SULFESTROL FOR TREATING CANCER” (CHAMAELEO PHARMA BVBA, priority 2012, published 2017):
Where “and” joins values, the source holds several entries; their conditions need not be identical. Equal entries are not always repeated.

Assays:
[1] = test system: platelet-rich plasma (PRP); assay: Platelet-aggregation-inducing effects in platelet-rich plasma, absorbance 630 nm; format: cell-based; settings: 7 minutes, human PRP
Procedure: Blood necessary to generate PRP was obtained from 4 healthy human volunteers. 100 ml of fresh venous blood from each donor was isolated directly into tubes containing 1/10th volume of the anti-coagulant Tri-Sodium Citrate (3.2% w/v). The blood and anti-coagulant were immediately mixed and the final concentration of Tri-Sodium Citrate was 0.0106 M.
PRP was prepared by centrifugation of anti-coagulated blood at 180 g for 10 minutes at room temperature. The cloudy yellow supernatant containing the platelets was removed and placed into a clean polypropylene tube. Platelet-poor plasma (PPP) was prepared by centrifuging the remaining sample at 1,200 g for 20 minutes at room temperature. The PRP was adjusted to a suitable platelet count and absorbance at 630 nm by addition of PPP.
All three compounds were dissolved in 100% DMSO to give a stock concentration of 60 mM. […] […] 100 nM gamma thrombin (Cambridge bioscience) was used as control for platelet aggregation. 90 μl aliquots of PRP were added to 96 wells plates. A baseline absorbance reading was taken at 630 nm. 5 μl of the compounds and gamma thrombin control was added to the appropriate PRP.
The plates were incubated at room temperature for 7 minutes on a plate shaker with continuous shaking. A second A630 nm reading was made after the 7 minutes incubation to measure any platelet aggregation induced by the compounds.

[2] = cited from earlier work
[3] = Estrogenic activity: body weight and plasma cholesterol levels; format: in vivo, male Sprague-Dawley rats; settings: for Mean bodyweight: in g (unit assumed)
Procedure: Estrogenic activity was determined by measuring body weight and plasma cholesterol levels.
Each animal was dosed three times a day with vehicle or test compound (1st dose 7:30-8:00, 2nd dose 12:30-13:00, 3rd dose 17:00-17:30) for 14 consecutive days.
After 14 days treatment, blood was collected from the animals via cardiac puncture 4 hrs past final dosing to analyze plasma cholesterol levels. The blood was immediately transferred to a tube containing 0.5M EDTA anticoagulant. It was mixed gently and centrifuged at 1000×g at 4° C. for 15 min. Plasma was aspirated from the centrifuged blood samples, quick frozen on dry ice and stored at −80° C. for later use.
Plasma cholesterol levels were determined using a commercial ELISA kit obtained from NovaTeinBio (BG-RAT11262). Standard protocol accompanied by the kit was used without any adjustments.

[4] = Metabolites in plasma after oral and intravenous administration, LC-MS/MS; settings: 10 mg/kg oral and intravenous
Procedure: Metabolites were identified after oral and intravenous administration of the compounds.
Each group consisted of three rats, giving a total of 12 animals. Compounds were dosed at 10 mg/kg for both oral and intravenous administration. A 0.9% saline solution was used as vehicle for oral and intravenous administration.
Prior to intravenous administration, the solution was filtered through a 0.22 μM filter. Oral dosing was performed using a oral gavage. Tail vein injection was used for intravenous administration.
At 0.5, 1, 2, 4, 6 and 8 hrs post administration, 0.25 ml blood was drawn from the animals and immediately transferred to prechilled microcentrifuge tubes containing 4 μl of K2-EDTA to prevent coagulation. Plasma was obtained by centrifugation of the plasma and stored at −70° C. until analysis. Plasma drawn from each individual rat was pooled according to the following schedule:
The pooled samples were analyzed using LC-MS/MS and the relative percentage of each metabolite in the pooled sample was measured on the basis of the mass spectrometric peak areas of the parent and its metabolites in the plasma.

[5] = Concentration of Mono-Sulfestrol in pooled plasma samples, LC-UV quantification; format: in vivo, male Sprague Dawley rats; settings: 10 mg/kg of the labelled compound, rat, pooled 0.5-8 hrs
Procedure: The concentration of Mono-Sulfestrol in the pooled samples described in Example 6 was quantified by LC-UV quantification.
A calibration standard solution was prepared as 10,000 ng/mL by adding an appropriate amount of Mono-Sulfestrol into 20% acetonitrile/0.1% formic acid in water. The peak area of the standard solution and the sample were measured with the wavelength set at 200 to 360 nm. The concentration levels of Mono-Sulfestrol were estimated using peak area (Area) of the standard and unknown samples and concentration of the standard (Concstd) by the following equation:
Areaunknown/Areastd=Concunknown/Concstd
Concunknown=Concstd·(Areaunknown/Areastd)

[6] = test system: MDA-MB-231 Dlux; assay: Orthotopic spontaneous metastasis breast model, whole body bioluminescence; format: in vivo, female MF-1 nude mice; settings: for total flux, whole body bioluminescence: mono-Sulfestrol 60 mg/kg, di-Sulfestrol 80 mg/kg orally once a day
Procedure: Female MF-1 nude mice (HsdOla:MF1-Foxn1nu, Harlan, UK) were divided into 3 groups of each 8 mice (n=8):
The mice were 5-6 weeks old at the start of the study and were maintained in sterile isolators within a barriered unit illuminated by fluorescent lights set to give a 12 hour light-dark cycle (on 07.00, off 19.00). The room was air-conditioned to maintain an air temperature range of 23±2° C. Sterile irradiated 2019 rodent diet (Harlan Teklad UK, product code Q219DJ1R2) and autoclaved water were offered ad libitum.
The MDA-MB-231 Dlux cells were maintained in vitro in RPMI containing 2 mM L-Glut and (Life Technologies, UK) and 10% (v/v) heat-inactivated foetal bovine serum (Sigma, Poole, UK) at 37° C. in 5% CO2 and humidified conditions. Cells were treated with Zeocin once a week at 0.4 mg/mL.
On the day of initiation cells were harvested from semi-confluent monolayers with 0.05% Trypsin-EDTA, washed twice in the culture medium and counted. Cells with viability of >90% were re-suspended, for in vivo administration, in 1:1 PBS:Matrigel at 2×10^6 cells/0.1 mL. Prior to injection, the cell suspension was homogenized and 0.1 mL of cell suspension was drawn into a 1 mL syringe. The cell suspension was then injected orthotopically into the lower left-side 2nd mammary fat pad of each mouse under anaesthesia (Medetomidine/Ketamine).
On day 7 after initiation and every six days thereafter, the mice were injected (s.c.) with 150 mg/kg D-Luciferin. 10 minutes following administration of D-Luciferin mice were anaesthetised and 15 minutes after administration they were placed into an imaging chamber (Spectrum CT) and imaged for luminescence (ventral view; whole body and shielding of the primary tumor). Images were captured and processed by Living Image 4.3.1 software (Caliper LS, US.).
On day 7 after initiation mice were assigned to groups such that there was a uniform mean bioluminescent signal between the groups.

[7] = cited from earlier work; remark: listed apart in the source
[8] = In vitro metabolism in human liver microsomes (STS and CYP); format: in vitro ADME; parameters: Clint: unit not given here
Procedure: In vitro metabolism pathways of DES, Mono-Sulfestrol and Di-Sulfestrol in human liver microsomes were investigated.
Special emphasis was put on desulfatation by steroid sulfatase (STS) and oxidation by cytochrome P (CYP) metabolism. Liver microsomes (Celsis in vitro Technologies) were used at a concentration of 0.5 mg/ml in a volume of 600 μl phosphate buffer pH 7.4. Estrone-3-sulfate was used as positive control.
5 μM of each compound (test and control compound) was added to the liver microsomes and the mixture was incubated at 37° C. for 5, 10, 20, 30, 50, 90 and 120 minutes. After incubation, aliquots of 45 μl were taken which were subsequently quenched with 150 μl ice cold methanol. Aliquots were incubated ≧1 h at −20° C. for protein precipitation. After precipitation, samples were centrifuged and remaining supernatant was used for analysis with LC-MS/MS. Half life of the compounds, speed of metabolism or intrinsic clearance (Clint), and contribution to metabolism of CYP and STS metabolism were calculated based on the data obtained at each time point.

[9] = orally administered, daily doses of 2 mg; cited from earlier work
[10] = nothing added (STS active, CYP inactive), 5 μM

4,4′-(hex-3-ene-3,4-diyl)bis(4,1-phenylene) disulfate [Di-Sulfestrol]
Absorbance (630 nm) ([1]; 2.3 μM, high absorbance = low aggregation): 0.260 ± 0.030
Absorbance (630 nm) ([1]; 4.7 μM): 0.253 ± 0.024
Absorbance (630 nm) ([1]; 9.4 μM): 0.266 ± 0.039
Absorbance (630 nm) ([1]; 18.75 μM): 0.254 ± 0.025
Absorbance (630 nm) ([1]; 37.5 μM): 0.260 ± 0.027
Absorbance (630 nm) ([1]; 75 μM): 0.264 ± 0.031
Absorbance (630 nm) ([1]; 150 μM): 0.266 ± 0.034
tolerance (in words) ([2]; mice, intravenously injectable): well tolerated in mice
estrogenic activity (in words) ([2]; mouse, in vivo): has estrogenic activity
Mean bodyweight ([3]; Day 0, DES 1.5 mg/kg per day, Di-Sulfestrol 3 mg/kg per day, three doses a day): 387 ± 6.9
Mean bodyweight ([3]; Day 2): 381 ± 8.3
Mean bodyweight ([3]; Day 4): 368 ± 9.5
Mean bodyweight ([3]; Day 6): 357 ± 9.2
Mean bodyweight ([3]; Day 8): 348 ± 8.5
Mean bodyweight ([3]; Day 10): 344 ± 7.2
Mean bodyweight ([3]; Day 12): 341 ± 7.5
Mean bodyweight ([3]; Day 14): 333 ± 6.67
Cholesterol (plasma) ([3]; after 14 days treatment, 4 hrs past final dosing, DES 1.5 mg/kg per day, Di-Sulfestrol 3 mg/kg per day): 12.1 ± 0.799 nmol/L
estrogenic activity in rats (in words) ([3]; lowering body weight and cholesterol levels): show estrogenic activity
metabolic fate in rat plasma (in words) [4]: mostly converted into Mono-Sulfestrol
Mono-Sulfestrol concentration in pooled plasma sample ([5]; intravenous): 735.9 ng/ml and 1.7 μM
Mono-Sulfestrol concentration in pooled plasma sample ([5]; oral): 261.3 ng/ml and 0.6 μM
total flux, whole body bioluminescence ([6]; Day 7 (before start of treatment)): 1.73 10^9 photons/second
total flux, whole body bioluminescence ([6]; Day 13): 8.84 10^9 photons/second
total flux, whole body bioluminescence ([6]; Day 19): 16.2 10^9 photons/second
effect on tumor progression (in words) ([6]; oral, MDA-MB-231 Dlux in mice): tumor progression inhibiting effect
water solubility (in words) [7]: water soluble
metabolism pathway in human liver microsomes (in words) [8]: only metabolized by STS enzymes
Clint [8, 10]: 31
Contribution to metabolism [8, 10]: 85%
Half-life [8, 10]: 45 min

stilbestrol sulfate
estrogenic activity relative to stilbestrol [9]: 44%
